Measured values: patent US4618692A, “4-carbamoyloxy-oxazaphosphorins” (Asta-Werke Aktiengesellschaft, priority 1984, dated 1986)

Test: cytotoxicity in vitro (general statement)
Format: cell-based

O=P1(N(CCCl)CCCl)NCCCO1 (stereo not shown) [cyclophosphamide, 2-[bis-(2-chloroethyl)-amino]-2-oxo-tetrahydro-2H-1,3,2-oxazaphosphorin]
cytotoxicity in vitro: practically no cytotoxic effect in vitro
